Experiments:
[1] = test system: TNF-alpha; test: TNF-alpha Quantification Assay (ELISA), LPS-stimulated RAW 264.7; format: cell-based; settings: Mus musculus, RAW264.7; at 10 μM; read-out: TNFα: % inh.
[2] = test system: KRas G12D mutant; test: Ras GTP Binding Domain Inhibition Assay (Ras Superfamily Assay); settings: for KRas G12D mutant + SOS: % inh.: with SOS; for KRas G12D mutant: % inh.: without SOS
Summary of the method: (§1)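 Ni-plate capture of His-tagged protein (10-30 μg/mL, o/n 4° C); cpd 20 μM or dilution series, 1% DMSO, 3 h RT ± Sos 556-1049 last h; 100 nM Cy-labelled GTP 45 min RT; 3× wash; fluorescence read.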

[3] = test system: KRas wild type; test: as above; settings: for KRas wild type + SOS: % inh.: with SOS; for KRas wild type: % inh.: without SOS
Summary of the method: as §1

[4] = target: T1, Rac-1 (Homo sapiens, UniProt P63000); test: as above; settings: read-out: Rac-1: % inh.
T1 construct: made in house
Summary of the method: as §1

Row | Compound | inhibition at 10 µM [1] | KRas G12D mutant + SOS: % inh. ([2]; 20 μM compound) | KRas G12D mutant: % inh. ([2]; 20 μM compound) | KRas wild type + SOS: % inh. ([3]; 20 μM compound) | KRas wild type: % inh. ([3]; 20 μM compound) | inhibition at 20 µM [4] | KRas G12D mutant + SOS: % inh. ([2]; at 20 μM) | KRas G12D mutant: % inh. ([2]; at 20 μM) | KRas wild type + SOS: % inh. ([3]; at 20 μM) | KRas wild type: % inh. ([3]; at 20 μM)
1 | CO[C@H]1CC[C@H](Nc2nc(-c3nccn3C)nn3cc(-c4ccn(C)n4)c(C(=O)NCC(F)(F)F)c23)C1 (racemic) [Compound 181, 4-(((1S,3S)-3-Methoxycyclopentyl)amino)-2-(1-methyl-1H-imidazol-2-yl)-6-(1-methyl-1H-pyrazol-3-yl)-N-(2,2,2-trifluoroethyl)pyrrolo[2,1-f][1,2,4]triazine-5-carboxamide] | 1 to 24% | 0 (0 = 0% inhibition) | A (A = 1-25% inhibition) | A (A = 1-25% inhibition) | A (A = 1-25% inhibition) | 1 to 25% |  |  |  | 
2 | CO[C@H]1CC[C@H](Nc2nc(-c3nccn3C)nn3cc(-c4ccn(C)n4)c(C(=O)NC4CC4)c23)C1 (racemic) [Compound 182, rac N-Cyclopropyl-4-(((1S,3S)-3-methoxycyclo-pentyl)amino)-2-(1-methyl-1H-imidazol-2-yl)-6-(1-methyl-1H-pyrazol-3-yl)pyrrolo[2,1-f][1,2,4]triazine-5-carboxamide] | 1 to 24% | 0 (0 = 0% inhibition) | A (A = 1-25% inhibition) | A (A = 1-25% inhibition) | A (A = 1-25% inhibition) | 1 to 25% |  |  |  | 
3 | Cc1c(-c2ccn(C)n2)cn2nc(-c3nccn3C)nc(Nc3ccc(OC(F)(F)F)cn3)c12 [Compound 232, 5-Methyl-2-(1-methyl-1H-imidazol-2-yl)-6-(1-methyl-1H-pyrazol-3-yl)-N-(5-(trifluoro-methoxy)pyridin-2-yl)pyrrolo[2,1-f][1,2,4]triazin-4-amine] | 1 to 24% |  |  |  |  | 76 to 100% | D (D = 76-100% inhibition) | D (D = 76-100% inhibition) | D (D = 76-100% inhibition) | D (D = 76-100% inhibition)
4 | Cn1ccnc1-c1nc(O)c2c(-c3ccccc3)c(-c3cccnc3)cn2n1 [Compound 189, 2-(1-Methyl-1H-imidazol-2-yl)-5-phenyl-6-(pyridin-3-yl)pyrrolo[2,1-f][1,2,4]triazin-4-ol] | 1 to 24% |  |  |  |  | 1 to 25% | A (A = 1-25% inhibition) | A (A = 1-25% inhibition) | 0 (0 = 0% inhibition) | 0 (0 = 0% inhibition)
5 | Cc1c(-c2ccn(C)n2)cn2nc(-c3nccn3C)nc(Nc3ccc(N(C)C)cn3)c12 [Compound 227, N5,N5-Dimethyl-N2-(5-methyl-2-(1-methyl-1H-imidazol-2-yl)-6-(1-methyl-1H-pyrazol-3-yl)pyrrolo[2,1-f][1,2,4]triazin-4-yl)pyridine-2,5-diamine] | 50 to 74% |  |  |  |  | 76 to 100% | D (D = 76-100% inhibition) | D (D = 76-100% inhibition) | D (D = 76-100% inhibition) | D (D = 76-100% inhibition)
6 | CO[C@H]1CC[C@H](Nc2nc(-c3nccn3C)nn3cc(-c4ccn(C)n4)c(C(=O)NCCN4CCOCC4)c23)C1 (racemic) [Compound 185, rac 4-(((1S,3S)-3-methoxycyclo-pentyl)amino)-2-(1-methyl-1H-imidazol-2-yl)-6-(1-methyl-1H-pyrazol-3-yl)-N-(2-morpholino-ethyl)pyrrolo[2,1-f][1,2,4]triazine-5-carboxamide] | 25 to 49% | 0 (0 = 0% inhibition) | A (A = 1-25% inhibition) | 0 (0 = 0% inhibition) | A (A = 1-25% inhibition) | 0% |  |  |  | 
7 | COc1cc(Nc2nc(-c3nccn3C)nn3cc(-c4ccn(C)n4)c(C)c23)ncc1F [Compound 237, N-(5-Fluoro-4-methoxypyridin-2-yl)-5-methyl-2-(1-methyl-1H-imidazol-2-yl)-6-(1-methyl-1H-pyrazol-3-yl)pyrrolo[2,1-f][1,2,4]triazin-4-amine] | 0% |  |  |  |  | 76 to 100% | D (D = 76-100% inhibition) | D (D = 76-100% inhibition) | D (D = 76-100% inhibition) | D (D = 76-100% inhibition)
8 | Cc1ccc(Nc2nc(-c3nccn3C)nn3cc(-c4ccn(C)n4)c(C)c23)nc1 [Compound 226, 5-Methyl-2-(1-methyl-1H-imidazol-2-yl)-6-(1-methyl-1H-pyrazol-3-yl)-N-(5-methylpyridin-2-yl)pyrrolo[2,1-f][1,2,4]triazin-4-amine] | 25 to 49% |  |  |  |  | 76 to 100% | D (D = 76-100% inhibition) | D (D = 76-100% inhibition) | D (D = 76-100% inhibition) | D (D = 76-100% inhibition)
9 | COc1ccnc(Nc2nc(-c3nccn3CCNC(=O)CCCC[C@H]3SC[C@H]4NC(=O)N[C@H]43)nn3cc(-c4ccn(C)n4)c(C)c23)c1 [Compound 216, N-(2-(2-(4-((4-methoxypyridin-2-yl)amino)-5-methyl-6-(1-methyl-1H-pyrazol-3-yl)pyrrolo[2,1-f][1,2,4]triazin-2-yl)-1H-imidazol-1-yl)ethyl)-5-((3aR,4R,6aS)-2-oxohexahydro-1H-thieno[3,4-d]imidazol-4-yl)pentanamide] | 25 to 49% |  |  |  |  | 76 to 100% | D (D = 76-100% inhibition) | D (D = 76-100% inhibition) | D (D = 76-100% inhibition) | D (D = 76-100% inhibition)
10 | COc1cccc(-c2cn3nc(-c4nccn4C)nc(N[C@H]4C[C@H](OC)C4)c3c2-c2ccccc2)c1OC [Compound 219, 6-(2,3-Dimethoxyphenyl)-N-((1r,3r)-3-methoxycyclobutyl)-2-(1-methyl-1H-imidazol-2-yl)-5-phenylpyrrolo[2,1-f][1,2,4]triazin-4-amine] | 75 to 100% |  |  |  |  | 1 to 25% | 0 (0 = 0% inhibition) | A (A = 1-25% inhibition) | 0 (0 = 0% inhibition) | A (A = 1-25% inhibition)
11 | Cc1c(-c2ccn(C)n2)cn2nc(-c3nccn3C)nc(Nc3ccc(C(F)(F)F)cn3)c12 [Compound 233, 5-Methyl-2-(1-methyl-1H-imidazol-2-yl)-6-(1-methyl-1H-pyrazol-3-yl)-N-(5-(trifluoromethyl)pyridin-2-yl)pyrrolo[2,1-f][1,2,4]triazin-4-amine] | 1 to 24% |  |  |  |  | 76 to 100% | D (D = 76-100% inhibition) | D (D = 76-100% inhibition) | D (D = 76-100% inhibition) | D (D = 76-100% inhibition)
12 | COc1ccnc(Nc2nc(-c3nccn3C)nn3cc(-c4ccn(C)n4)c(C(=O)NCCN(C)C)c23)c1 [Compound 177, N-(2-(Dimethylamino)ethyl)-4-((4-methoxypyridin-2-yl)amino)-2-(1-methyl-1H-imidazol-2-yl)-6-(1-methyl-1H-pyrazol-3-yl)pyrrolo[2,1-f][1,2,4]triazine-5-carboxamide] | 0% | D (D = 76-100% inhibition) | C (C = 50-75% inhibition) | D (D = 76-100% inhibition) | D (D = 76-100% inhibition) | 76 to 100% |  |  |  | 
13 | Cc1c(-c2ccn(C)n2)cn2nc(-c3nccn3C)nc(O)c12 [Compound 172, 5-Methyl-2-(1-methyl-1H-imidazol-2-yl)-6-(1-methyl-1H-pyrazol-3-yl)pyrrolo[2,1-f][1,2,4]triazin-4-ol] | 0% | B (B = 26-49% inhibition) | B (B = 26-49% inhibition) | B (B = 26-49% inhibition) | B (B = 26-49% inhibition) | 26 to 49% |  |  |  | 
14 | Cc1cnc2c(c1)CCN2c1nc(-c2nccn2C)nn2cc(-c3ccn(C)n3)c(C)c12 [Compound 239, 5-Methyl-2-(1-methyl-1H-imidazol-2-yl)-6-(1-methyl-1H-pyrazol-3-yl)-4-(5-methyl-2,3-dihydro-1H-pyrrolo[2,3-b]pyridin-1-yl)pyrrolo[2,1-f][1,2,4]triazine] | 1 to 24% |  |  |  |  | 76 to 100% | D (D = 76-100% inhibition) | D (D = 76-100% inhibition) | D (D = 76-100% inhibition) | D (D = 76-100% inhibition)
15 | Cc1c(-c2ccn(C)n2)cn2nc(-c3nccn3C)nc(Nc3ccc(N4CCCC4)cn3)c12 [Compound 228, 5-Methyl-2-(1-methyl-1H-imidazol-2-yl)-6-(1-methyl-1H-pyrazol-3-yl)-N-(5-(pyrrolidin-1-yl)pyridin-2-yl)pyrrolo[2,1-f][1,2,4]triazin-4-amine] | 1 to 24% |  |  |  |  | 76 to 100% | C (C = 50-75% inhibition) | D (D = 76-100% inhibition) | C (C = 50-75% inhibition) | C (C = 50-75% inhibition)
